Source: patent US20090326001A1, “THIENOPYRIDINE DERIVATIVES AS MODULATORS OF METABOTROPIC GLUTAMATE RECEPTORS” (priority 2005, published 2009)

Columns and labels:
[1] = target: T1, mGluR5 (UniProt P31424); assay: mGluR5 receptor binding test ([3H]-M-MPEP displacement); details: radioligand [3H]-M-MPEP 2 nM; table does not say rat cerebro-cortical membrane or human mGluR5a A18 cells; read-out: mGlu5 Ki
T1 construct: Rat cerebro-cortical membrane preparation
Protocol: Rat cerebro-cortical membrane preparation was used to determine the binding characteristics of reference compounds and novel compounds to the rat mGluR5. The A18 cell line expressing hmGluR5a (purchased from Euroscreen) was used to determine binding characteristics of the chemical compounds to the human mGluR5a receptor. As radioligand [3H]-M-MPEP (2 nM) was used. The nonspecific binding was determined in the presence of 10 μM M-MPEP.

[2] = target: T2, rat mGluR1 (Rattus norvegicus, UniProt P23385); assay: mGluR1 receptor binding test ([3H]R214127 displacement, rat cerebellar membrane); details: radioligand [3H]R214127 3 nM, read-out: mGlu1 Ki
T2 construct: rat cerebellar membrane preparation was used; from tissue; host or cells: rat cerebellum (membrane preparation)
Protocol: MGluR1 receptor binding testes were performed according to modified method of Lavreysen et al. (Mol. Pharm., 2003, 63, 1082). Based on the high homology between the human and rat mGluR1 receptors, rat cerebellar membrane preparation was used to determine the binding characteristics of reference compounds and novel compounds to the rat mGluR1. As radioligand [3H]R214127 (3 nM) was used and the nonspecific binding was determined in the presence of 1 μM of R214127.
IC-50 values were determined from displacement curves by nonlinear regression analysis and were converted by equation method of Cheng and Prusoff (Biochem. Pharmacol., 1973, 22, 3099) to Ki values.

T2 sequence (P23385 19-1199): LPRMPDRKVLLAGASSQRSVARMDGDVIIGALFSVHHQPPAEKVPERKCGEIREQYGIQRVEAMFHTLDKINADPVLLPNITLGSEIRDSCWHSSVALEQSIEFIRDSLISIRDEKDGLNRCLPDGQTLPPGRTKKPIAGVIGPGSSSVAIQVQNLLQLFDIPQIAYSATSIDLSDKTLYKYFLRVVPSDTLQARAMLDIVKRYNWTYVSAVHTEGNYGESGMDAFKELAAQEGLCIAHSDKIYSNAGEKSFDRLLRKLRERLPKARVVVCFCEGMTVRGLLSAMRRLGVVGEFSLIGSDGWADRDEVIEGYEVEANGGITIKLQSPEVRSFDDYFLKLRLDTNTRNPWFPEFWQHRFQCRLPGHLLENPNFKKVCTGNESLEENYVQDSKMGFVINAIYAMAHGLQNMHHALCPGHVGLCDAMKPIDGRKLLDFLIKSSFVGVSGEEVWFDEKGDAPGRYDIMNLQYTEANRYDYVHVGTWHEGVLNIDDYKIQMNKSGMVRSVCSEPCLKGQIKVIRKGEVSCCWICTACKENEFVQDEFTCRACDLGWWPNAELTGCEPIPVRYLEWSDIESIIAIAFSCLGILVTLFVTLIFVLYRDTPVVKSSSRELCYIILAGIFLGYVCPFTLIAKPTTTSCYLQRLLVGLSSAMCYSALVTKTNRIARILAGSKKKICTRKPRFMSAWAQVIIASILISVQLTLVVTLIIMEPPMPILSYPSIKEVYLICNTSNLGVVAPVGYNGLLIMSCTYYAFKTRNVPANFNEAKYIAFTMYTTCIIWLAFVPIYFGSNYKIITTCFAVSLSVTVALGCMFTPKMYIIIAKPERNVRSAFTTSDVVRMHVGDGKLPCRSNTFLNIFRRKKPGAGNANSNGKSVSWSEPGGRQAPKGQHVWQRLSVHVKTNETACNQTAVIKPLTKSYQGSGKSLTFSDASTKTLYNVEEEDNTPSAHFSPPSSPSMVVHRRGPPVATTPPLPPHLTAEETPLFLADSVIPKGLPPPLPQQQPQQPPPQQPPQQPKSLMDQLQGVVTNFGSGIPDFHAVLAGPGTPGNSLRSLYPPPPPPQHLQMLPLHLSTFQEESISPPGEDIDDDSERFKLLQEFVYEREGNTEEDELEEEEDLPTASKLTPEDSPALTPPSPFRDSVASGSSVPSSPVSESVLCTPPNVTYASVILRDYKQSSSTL

Molecule	Ki [1] [nM]	Ki [2] [nM]
3-(4-Fluoro-phenyl)-1-[3-(4-fluoro-phenyl)-thieno[2,3-b]pyridin-2-yl]-propenone [Compound 10]	> 1500	< 500
O=C(Cc1ccc(F)cc1)c1sc2ncccc2c1-c1ccc(Cl)cc1 [Compound 1, 1-[3-(4-chloro-phenyl)-thieno[2,3-b]pyridin-2-yl]-2-(4-fluoro-phenyl)-ethanone]	< 500	< 500
O=C(Cc1ccc(F)c(F)c1)c1sc2ncccc2c1-c1ccc(Cl)cc1 [Compound 2, 1-[3-(4-chloro-phenyl)-thieno[2,3-b]pyridin-2-yl]-2-(3,4-difluoro-phenyl)-ethanone]	< 500	< 500
O=C(Cc1ccc(F)cc1)c1sc2ncccc2c1-c1ccc(F)cc1 [Compound 3, 2-(4-fluoro-phenyl)-1-[3-(4-fluoro-phenyl)-thieno[2,3-b]pyridin-2-yl]-ethanone]	< 500	< 500
O=C(CCc1cccc(F)c1)c1sc2ncccc2c1-c1ccc(F)cc1 [Compound 4, 3-(3-fluoro-phenyl)-1-[3-(4-fluoro-phenyl)-thieno[2,3-b]pyridin-2-yl]-propan-1-one]	< 500	< 500
O=C(CCc1ccc(F)cc1)c1sc2ncccc2c1-c1ccc(F)cc1 [Compound 5, 3-(4-Fluoro-phenyl)-1-[3-(4-fluoro-phenyl)-thieno[2,3-b]pyridin-2-yl]-propan-1-one]	< 500	< 500
O=C(CCc1ccoc1)c1sc2ncccc2c1-c1ccc(F)cc1 [Compound 16]	500 to 1500	500 to 1500
O=C(CCc1ccccn1)c1sc2ncccc2c1-c1ccc(F)cc1 [Compound 17]	500 to 1500	< 500
O=C(CCc1cccs1)c1sc2ncccc2c1-c1ccc(F)cc1 [Compound 18]	500 to 1500	< 500
O=C(CCc1ccsc1)c1sc2ncccc2c1-c1ccc(F)cc1 [Compound 19, 1-[3-(4-fluoro-phenyl)-thieno[2,3-b]pyridin-2-yl]-3-thiophen-3-yl-propan-1-one]	< 500	< 500
O=C(OCc1ccc(F)cc1)c1sc2ncccc2c1-c1ccc(Cl)cc1 [Compound 20, 3-(4-chloro-phenyl)-thieno[2,3-b]pyridine-2-carboxylic acid 4-fluoro-benzyl ester]	< 500	< 500
CCOC(=O)CC(=O)c1sc2ncccc2c1-c1ccc(C)cc1 [Compound 22, 3-oxo-3-(3-p-tolyl-thieno[2,3-b]pyridin-2-yl)-propionic acid ethyl ester]	< 500	< 500
CCOC(=O)CC(=O)c1sc2ncccc2c1-c1ccc(Cl)cc1 [Compound 23, 3-[3-(4-Chloro-phenyl)-thieno[2,3-b]pyridin-2-yl]-3-oxo-propionic acid ethyl ester]	< 500	< 500
CCOC(=O)CC(=O)c1sc2ncccc2c1-c1ccc(F)cc1 [Compound 24, 3-[3-(4-fluoro-phenyl)-thieno[2,3-b]pyridin-2-yl]-3-oxo-propionic acid ethyl ester]	< 500	< 500
CCOC(=O)CC(=O)c1sc2ncccc2c1-c1ccccc1 [Compound 25, 3-oxo-3-(3-phenyl-thieno[2,3-b]pyridin-2-yl)-propionic acid ethyl ester]	< 500	< 500
CCOC(=O)CC(=O)c1sc2nc(C)ccc2c1-c1ccc(Cl)cc1 [Compound 26, 3-[3-(4-chloro-phenyl)-6-methyl-thieno[2,3-b]pyridin-2-yl]-3-oxo-propionic acid ethyl ester]	< 500	< 500
O=C(NCc1ccc(F)cc1)c1sc2ncccc2c1-c1ccc(F)cc1 [Compound 27, 3-(4-Fluoro-phenyl)-thieno[2,3-b]pyridin-2-carboxylic acid (4-fluoro-benzyl)-amide]	< 500	< 500
CN(Cc1cccs1)C(=O)c1sc2ncccc2c1-c1ccc(Cl)cc1 [Compound 30]	> 1500	> 1500
CN(Cc1ccc(F)cc1)C(=O)c1sc2ncccc2c1-c1ccc(Cl)cc1 [Compound 34]	> 1500	500 to 1500
O=C(Nc1nccs1)c1sc2ncccc2c1-c1ccc(Cl)cc1 [Compound 35]	> 1500	> 1500
O=C(Nc1ccc(F)cc1)c1sc2ncccc2c1-c1ccc(F)cc1 [Compound 37]	> 1500	> 1500
